Experimental data published in patent US20250263404A1, “AMINOPYRIDINES AS ACTIVATORS OF PI3 KINASE” (UCL Business Ltd, priority 2021, published 2025).

Target: PI3Kα (Homo sapiens, UniProt P42336)
Experiment: pAKT S473 ELISA in A549 cells (PI3Kα activation)
Format: cell-based
Design: endogenous in cells; host or cells: A549
Details: for EC50: A549 cells, 15 min treatment, pAKT S473 ELISA, normalised to Emax of 1 μM insulin, read-out: Av EC50; for Emax at 10 µM: A549, 0.25 h, read-out: <50% response at 10 μM
Procedure: EC50 values were determined by quantifying phosphorylation on S473 residues of Akt in A549 human adenocarcinoma cells by ELISA (enzyme linked immunoadsorbent assay, R&D Systems, DYC887BE). A549 cells were seeded into 96-well plates (50,000 cells/well) in DMEM supplemented with 10% foetal bovine serum and 1% penicillin-streptomyocin. Following 24 h in culture cells were starved for 24 h in serum-free DMEM before 15 minute treatment with a concentration response curve of compounds. Experimental compounds were diluted in DMSO into […] 1:3 concentration response curves in polypropylene V-bottom plates (SLS MIC9050). Concentration response curves were diluted to a 3× stock in serum-free DMEM. Standard 8-point concentration response curves were performed at 50, 16.7, 5.6, 1.9, 0.6, 0.2, 0.07, 0.02 μM and serum-free DMEM containing 0.5% DMSO was used as a negative control. […] A549 cells were seeded at 50,000 cells per well in 96-well plates in DMEM (10% FBS+1% P/S). The next day cells were washed once with PBS before addition of serum-free DMEM for 24 h. On the day of treatment cells, were incubated in fresh serum-free DMEM prior to treatment. Compounds solubilised to 10 mM in DMSO were diluted 1:3 in an 8-point concentration response curve in DMSO. Concentration response curves were diluted in serum-free DMEM by transfer into intermediate plates using a BRAVO liquid handler (Agilent). Intermediate plates were then used to treat cell plates using the BRAVO liquid handler. Compound concentration response curves had atop concentration of 50 μM and a final well concentration of 0.5% DMSO. Cell plates were treated for 15 min at 37° C., 5% CO2 before being washed with ice-cold PBS and lysed in lysis buffer 6 (R&D Systems #895561) and freezing at −80° C. Levels of pAKT-S473 were determined using the phospho-AKT (S473) pan-specific Duoset IC ELISA (R&D Systems #DYC887BE) in 96-well white high-binding plates (Corning #3922) according to manufacturer's instructions. Endpoint luminescence was measured using a Sense (Hidex) platereader. […] Data were transformed and EC50 data were determined by variable slope (4 parameters) non-linear regression using Prism 7 (Graphpad).

PI3Kα, sequence (P42336 whole entry): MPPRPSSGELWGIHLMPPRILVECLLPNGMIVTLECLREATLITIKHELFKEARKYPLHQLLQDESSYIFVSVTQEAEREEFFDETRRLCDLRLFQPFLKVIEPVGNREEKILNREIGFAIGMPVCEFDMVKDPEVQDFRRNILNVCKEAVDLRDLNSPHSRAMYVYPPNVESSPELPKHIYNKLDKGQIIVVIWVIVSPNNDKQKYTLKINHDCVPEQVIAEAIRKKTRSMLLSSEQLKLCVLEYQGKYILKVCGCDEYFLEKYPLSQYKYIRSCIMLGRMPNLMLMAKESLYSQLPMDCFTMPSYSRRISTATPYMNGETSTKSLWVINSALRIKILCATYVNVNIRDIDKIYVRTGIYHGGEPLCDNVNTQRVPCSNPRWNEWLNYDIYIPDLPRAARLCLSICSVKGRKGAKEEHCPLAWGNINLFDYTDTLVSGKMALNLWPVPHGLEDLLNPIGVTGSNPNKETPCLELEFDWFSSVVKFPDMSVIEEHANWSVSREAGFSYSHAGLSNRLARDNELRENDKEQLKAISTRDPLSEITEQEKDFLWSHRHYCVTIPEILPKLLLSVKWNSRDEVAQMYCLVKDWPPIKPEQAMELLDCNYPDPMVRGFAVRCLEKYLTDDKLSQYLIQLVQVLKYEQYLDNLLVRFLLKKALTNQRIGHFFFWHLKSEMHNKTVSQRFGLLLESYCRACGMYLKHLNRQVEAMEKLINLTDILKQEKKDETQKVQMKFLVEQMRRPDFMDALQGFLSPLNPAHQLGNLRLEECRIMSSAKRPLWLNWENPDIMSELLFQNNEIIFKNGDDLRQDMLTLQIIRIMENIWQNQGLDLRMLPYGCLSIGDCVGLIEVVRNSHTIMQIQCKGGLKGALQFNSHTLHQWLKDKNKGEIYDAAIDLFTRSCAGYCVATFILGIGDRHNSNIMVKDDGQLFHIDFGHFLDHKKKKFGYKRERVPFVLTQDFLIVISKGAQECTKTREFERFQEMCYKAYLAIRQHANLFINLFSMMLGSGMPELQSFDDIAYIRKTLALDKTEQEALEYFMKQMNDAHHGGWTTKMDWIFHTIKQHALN
PI3Kα, sequence (P27986 whole entry partner): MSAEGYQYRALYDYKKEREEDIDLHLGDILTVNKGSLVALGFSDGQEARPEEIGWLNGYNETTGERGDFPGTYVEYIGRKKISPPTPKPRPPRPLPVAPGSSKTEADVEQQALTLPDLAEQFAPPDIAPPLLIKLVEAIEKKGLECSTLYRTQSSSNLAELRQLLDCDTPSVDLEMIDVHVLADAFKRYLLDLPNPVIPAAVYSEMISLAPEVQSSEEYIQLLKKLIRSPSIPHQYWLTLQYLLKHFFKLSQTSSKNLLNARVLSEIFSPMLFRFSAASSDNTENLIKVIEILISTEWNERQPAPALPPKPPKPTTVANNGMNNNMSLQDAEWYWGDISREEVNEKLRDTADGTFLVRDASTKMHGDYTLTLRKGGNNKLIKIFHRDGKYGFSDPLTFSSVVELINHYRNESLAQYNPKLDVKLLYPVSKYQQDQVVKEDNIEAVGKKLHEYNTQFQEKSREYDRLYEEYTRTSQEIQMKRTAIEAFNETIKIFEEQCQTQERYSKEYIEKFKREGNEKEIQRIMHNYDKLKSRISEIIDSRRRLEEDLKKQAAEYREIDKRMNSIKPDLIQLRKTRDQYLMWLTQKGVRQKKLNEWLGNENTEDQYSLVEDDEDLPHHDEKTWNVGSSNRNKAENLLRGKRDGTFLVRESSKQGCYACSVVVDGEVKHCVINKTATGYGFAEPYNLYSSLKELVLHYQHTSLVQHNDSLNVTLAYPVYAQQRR

Row | EC50 | Emax at 10 µM | SMILES
1 | ≥ 50000 nM |  | COc1cc(Nc2cc(Nc3ccn(C)n3)ccn2)cc(OC)c1OC [2 (1903)]
2 | > 27000 nM | < 50% | CNC(=O)c1ccc(Nc2ccnc(Nc3ccc4c(c3)CCN4C(C)=O)c2)cc1 [87 (2112)]
3 | ≥ 50000 nM |  | CCN1CCN(c2ccc(Nc3cc(Nc4ccncn4)ccn3)cc2)CC1 [80 (2106)]
4 | > 50000 nM |  | COc1cc(N2CCN(Cc3ccc(C)cc3)CC2)ccc1Nc1cc(Nc2cccc3c2N(C(C)=O)CC3)ccn1 [26 (1993)]
5 | 390 nM | < 50% | CC(=O)N1CCc2cccc(Nc3ccnc(Nc4cc(C(C)C)nn4C)c3)c21 [70 (2070)]
6 | > 50000 nM |  | CC(=O)N1CCc2cccc(Nc3ccnc(Nc4cc5ccccc5cn4)c3)c21 [44 (2021)]
7 | 2550 nM |  | COc1cc(N2CCN(C)CC2)ccc1Nc1cc(Nc2cccc3c2N(C(C)=O)CC3)ccn1 [R4 (1889)]
8 | > 50000 nM | < 50% | CC(=O)N1CCc2cc(Nc3cc(Nc4cccc(S(C)(=O)=O)c4)ccn3)ccc21 [88 (2115)]
9 | 1350 nM |  | CNC(=O)c1cccc(Nc2ccnc(Nc3ccc(N4CCN(C)CC4)cc3OC)c2)c1 [58 (2049)]
10 | > 50000 nM | < 50% | COc1cc(N2CCN(C)CC2)ccc1Nc1cc(Nc2cccc3[nH]ccc23)ccn1 [63 (2057)]
11 | 1550 nM |  | COc1ccc(S(C)(=O)=O)cc1Nc1cc(Nc2cccc3c2N(C(C)=O)CC3)ccn1 [R1 (1888)]
12 | 550 nM | < 50% | COc1cc(N2CCN(C)CC2)ccc1Nc1cc(Nc2cccc(-c3ccccn3)c2)ccn1 [59 (2052)]
13 | 6680 nM |  | CCOCC(=O)N1CCc2cccc(Nc3ccnc(Nc4ccc(N5CCN(C)CC5)cc4OC)c3)c21 [21 (1961)]
14 | > 50000 nM |  | CC(=O)N1CCc2cccc(Nc3ccnc(Nc4ccc(OCc5ccccc5)cc4)c3)c21 [37 (2014)]
15 | 8810 nM |  | CC(=O)N1CCc2cccc(Nc3ccnc(Nc4ccc(Oc5ccccc5)cc4)c3)c21 [36 (2013)]
16 | 1290 nM | < 50% | COc1cc(N2CCN(C)CC2)ccc1Nc1cc(Nc2cccc3nccnc23)ccn1 [62 (2056)]
17 | 1280 nM |  | COc1ccc(Nc2ccnc(Nc3ccc(N4CCN(C)CC4)cc3OC)c2)cc1NC(C)=O [56 (2046)]
18 | 1620 nM |  | COc1cc(N2CCN(C)CC2)ccc1Nc1cc(Nc2cccc3c2N(C(C)=O)CC3)c(F)cn1 [R2 (1890)]
19 | 1960 nM |  | COc1cc(Nc2cc(Nc3cccc4c3N(C(C)=O)CC4)ccn2)cc(OC)c1OC [R3 (1887)]
20 | 500 nM | < 50% | CC(=O)N1CCc2ccc(Nc3cc(Nc4cccc5c4N(C(C)=O)CC5)ccn3)cc21 [73 (2073)]
21 | > 6120 nM |  | COc1cc(N2CCN(C)CC2)ccc1Nc1cc(Nc2ccncc2)ccn1 [55 (2045)]
22 | 5530 nM | < 50% | COc1cc(N2CCN(C)CC2)ccc1Nc1nccc(Nc2cccc3c2N(C(C)=O)CC3)c1C [16 (1944)]

Row | EC50 | Emax at 10 µM | SMILES
23 | > 50000 nM | < 50% | CNC(=O)c1ccc(Nc2cc(Nc3cc(C(C)C)nn3C)ccn2)cc1 [90 (2117)]
24 | > 50000 nM |  | CC(=O)N1CCc2cccc(Nc3ccnc(Nc4ccnc5ccccc45)c3)c21 [98 (2355)]
25 | > 50000 nM | < 50% | COc1cc(N2CCN(C)CC2)ccc1Nc1cc(-c2cccc(C(=O)N(C)C)c2)ccn1 [103 (1940)]
26 | 1370 nM |  | CNC(=O)c1ccc(Nc2cc(Nc3cccc4c3N(C(C)=O)CC4)ccn2)cc1 [42 (2019)]
27 | 890 nM |  | COc1cc(N2CCN(C)CC2)ccc1Nc1cc(Nc2cc(C(C)(C)C)nn2C)ccn1 [29 (1998)]
28 | > 50000 nM | < 50% | CCN1CCN(c2ccc(Nc3cccc(Nc4cccc5c4N(C(C)=O)CC5)c3)cc2)CC1 [99 (2346)]
29 | 1460 nM |  | CC(=O)N1CCc2cccc(Nc3ccnc(Nc4ccc(N5CCN(C)CC5)cc4OC(C)C)c3)c21 [32 (2008)]
30 | 4530 nM |  | COc1cc(N2CCN(C)CC2)ccc1Nc1cc(Nc2ccccc2)ccn1 [23 (1971)]
31 | 8310 nM |  | CCN1CCN(c2ccc(Nc3cc(Nc4ccc(C(=O)NC)cc4)ccn3)cc2)CC1 [79 (2105)]
32 | > 50000 nM | < 50% | CNC(=O)c1ccc(Nc2cc(Nc3cc(C(C)(C)C)nn3C)ccn2)cc1 [89 (2116)]
33 | 840 nM | < 50% | COc1cc(Nc2cc(Nc3ccc4c(c3)N(C(C)=O)CC4)ccn2)cc(OC)c1OC [6 (1907)]
34 | > 505 nM | < 50% | COc1cc(N2CC3(COC3)C2)ccc1Nc1cc(Nc2cccc3c2N(C(C)=O)CC3)ccn1 [96 (2353)]
35 | 4780 nM |  | COCC(=O)N1CCc2cccc(Nc3ccnc(Nc4ccc(N5CCN(C)CC5)cc4OC)c3)c21 [17 (1950)]
36 | > 50000 nM |  | CC(=O)N1CCc2cccc(Nc3ccnc(Nc4cc(-c5ccccc5)nn4C)c3)c21 [46 (2023)]
37 | 5330 nM |  | CCN1CCN(c2ccc(Nc3cc(Nc4cccc(-n5ccnc5)c4)ccn3)cc2)CC1 [81 (2107)]
38 | 1250 nM |  | COc1cc(N2CCN(C)CC2)ccc1Nc1cc(Nc2ccc3c(c2)CCN3C(C)=O)ccn1 [24 (1989)]
39 | 2280 nM |  | CCC(=O)N1CCc2cccc(Nc3ccnc(Nc4ccc(N5CCN(C)CC5)cc4OC)c3)c21 [20 (1959)]
40 | > 10400 nM |  | CC(=O)N1CCc2cccc(Nc3ccnc(Nc4ccc(C(=O)N5CCOCC5)cc4)c3)c21 [92 (2348)]
41 | 1530 nM |  | COc1cc(N2CCN(C)CC2)ccc1Nc1cc(Nc2cccc(-n3ccnc3)c2)ccn1 [65 (2063)]
42 | 2290 nM |  | COc1cc(C(=O)N2CCOCC2)ccc1Nc1cc(Nc2cccc3c2N(C(C)=O)CC3)ccn1 [91 (2347)]
43 | 970 nM |  | COc1cc(N2CCN(C3CC3)CC2)ccc1Nc1cc(Nc2cccc3c2N(C(C)=O)CC3)ccn1 [97 (2354)]
44 | > 50000 nM |  | COc1cc(C#N)ccc1Nc1cc(Nc2cccc3c2N(C(C)=O)CC3)ccn1 [100 (2357)]

Row | EC50 | Emax at 10 µM | SMILES
45 | > 29000 nM | < 50% | CNC(=O)c1cccc(Nc2ccnc(Nc3ccc4c(c3)CCN4C(C)=O)c2)c1 [86 (2111)]
46 | 440 nM | < 50% | COc1cc(Nc2cc(Nc3ccc4c(c3)CCN4C(C)=O)ccn2)cc(OC)c1OC [5 (1906)]
47 | 1530 nM |  | CCN1CCN(c2ccc(Nc3cc(Nc4cccc5c4N(C(C)=O)CC5)ccn3)cc2)CC1 [12 (1938)]
48 | 3810 nM |  | COc1cc(N2CCN(C)CC2)ccc1Nc1cc(Nc2ccc(S(C)(=O)=O)cc2)ccn1 [52 (2038)]
49 | 1580 nM | < 50% | CNC(=O)c1ccccc1Nc1ccnc(Nc2ccc(N3CCOCC3)cc2OC)c1 [9 (1935)]
50 | > 50000 nM |  | CC(=O)N1CCc2cccc(Nc3ccnc(Nc4ccc(-c5ccccc5)cn4)c3)c21 [74 (2079)]
51 | 2390 nM |  | COc1cc(N2CCN(C)CC2)ccc1Nc1cc(Nc2cccc3c2N(C(=O)C(C)C)CC3)ccn1 [15 (1943)]
52 | 1580 nM |  | COc1cc(N2CCN(C)CC2)ccc1Nc1cc(Nc2cccnc2)ccn1 [64 (2061)]
53 | > 50000 nM |  | CC(=O)N1CCc2cccc(Nc3ccnc(Nc4cccc(Oc5ccccc5)c4)c3)c21 [34 (2010)]
54 | 1740 nM | < 50% | CC(=O)N1CCc2cccc(Nc3ccnc(Nc4ccc(C#N)cc4)c3)c21 [41 (2018)]
55 | 2510 nM |  | COc1cc(N2CCN(C)CC2)ccc1Nc1cc(Nc2cccc(NS(C)(=O)=O)c2)ccn1 [60 (2054)]
56 | 1520 nM |  | CCN1CCN(c2ccc(Nc3cc(Nc4cccc(S(C)(=O)=O)c4)ccn3)cc2)CC1 [82 (2108)]
57 | 590 nM | < 50% | CC(=O)N1CCc2cccc(Nc3ccnc(-c4cnn(C5CCNCC5)c4)c3)c21 [R5 (1962)]
58 | > 50000 nM | < 50% | CNC(=O)c1ccccc1Nc1ccnc(Nc2ccc(N3CCN(C)CC3)cc2OC)c1 [8 (1934)]
59 | 1760 nM | < 50% | CNC(=O)c1cccc(Nc2cc(Nc3cccc4c3N(C(C)=O)CC4)ccn2)c1 [47 (2026)]
60 | > 50000 nM |  | C#Cc1cccc(Nc2cc(Nc3cccc4c3N(C(C)=O)CC4)ccn2)c1 [69 (2069)]
61 | 1080 nM |  | CC(=O)N1CCc2cc(Nc3cc(Nc4cccc5c4N(C(C)=O)CC5)ccn3)ccc21 [72 (2072)]
62 | 14700 nM |  | CC(=O)N1CCc2cccc(Nc3ccnc(Nc4ccc(N5CCN(C)CC5)cc4C)c3)c21 [95 (2351)]
63 | 310 nM |  | COc1cc(N2CCN(C)CC2)ccc1Nc1cc(Nc2ccc3scnc3c2)ccn1 [51 (2031)]
64 | 540 nM | < 50% | COc1cc(N2CCOCC2)ccc1Nc1cc(Nc2cccc3c2N(C(C)=O)CC3)ccn1 [7 (1912)]
65 | > 50000 nM |  | CC(=O)N1CCc2cccc(Nc3ccnc(Nc4cccc(S(C)(=O)=O)c4)c3)c21 [102 (2359)]
